Test systems include CAKI-1; CCRF-CEM; COLO 205; DU-145; HCT-15; HT-29; K562; MCF7; MOLT-4; NCI-H226; NCI/ADR-RES; OVCAR-4; SF-295; SK-MEL-2; SK-MEL-5; SK-OV-3; SNB-19; UACC-62; UO-31; A498.
What all share (assay): DTP human tumour cell line panel, 48 h

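Interpolation was linear, between the two tested concentrations surrounding the appropriate level; five concentrations were tested over 48 hours in 96-well plates. GI50 = concentration required for 50% inhibition of growth.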 The source made the active and inactive calls. Cut-off read from the data, not from the text of the source: active = GI50 up to about 1.1 µM and inactive = higher.

Broadly, the GI50 is the concentration at which growth is held to half of that of the control. For the compound `O=C(NNC(=O)c1ccccc1SSc1ccccc1C(=O)NNC(=O)c1ccccc1S)c1ccccc1S`, the GI50 in the experiment on CAKI-1 is 12.9 µM (inactive); in the experiment with CCRF-CEM, 1.29 µM (inactive); in the experiment with COLO 205, 36.4 µM (inactive); with DU-145, 6.55 µM (inactive); in the experiment on HCT-15, 9.16 µM; with HT-29 it was 30.3 µM (inactive). For the same compound, the GI50 in the experiment on K562 was 11.3 µM (inactive); with MCF7 it was 15.2 µM (inactive); in the experiment on MOLT-4 it was 6 µM (inactive); in the experiment with NCI-H226, 42.4 µM (inactive); in the experiment with NCI/ADR-RES it was 20 µM (inactive); in the experiment with OVCAR-4, 31.1 µM (inactive). The GI50 was 10.6 µM (inactive) in the experiment on SF-295; 23.7 µM (inactive) with SK-MEL-2; 39.7 µM (inactive) in the experiment on SK-MEL-5; 46.5 µM (inactive) in the experiment with SK-OV-3; 26.2 µM (inactive) in the experiment with SNB-19; 17.5 µM (inactive) in the experiment on UACC-62. In addition, the GI50 in the experiment with UO-31 was 9.95 µM (inactive).

Consider `CC(=O)C1=C(C)O[C@@H]2O[C@H](COCc3ccccc3)[C@@H](OCc3ccccc3)[C@H](O)[C@@H]2S1`, for which the GI50 in the experiment with A498 was 25.1 µM (inactive); in the experiment with CAKI-1 it was 49.3 µM (inactive); in the experiment with CCRF-CEM, 0.855 µM (active); in the experiment with COLO 205 it was 22.2 µM (inactive); in the experiment with DU-145, 20.8 µM (inactive); with HCT-15 it was 21.3 µM. In addition, the GI50 in the experiment on HT-29 is 19.6 µM (inactive); with K562 it was 19.7 µM (inactive); with MOLT-4 it was 14 µM (inactive); in the experiment with NCI-H226, 18.8 µM (inactive); in the experiment on NCI/ADR-RES, 16.3 µM (inactive); in the experiment on OVCAR-4 it was 24.7 µM (inactive). Moreover, the GI50 is 13.8 µM (inactive) with SF-295; 20.4 µM (inactive) with SK-MEL-2; 16.5 µM (inactive) in the experiment with SK-MEL-5; 25.1 µM (inactive) with SK-OV-3; 38 µM (inactive) in the experiment on SNB-19; 15.5 µM (inactive) in the experiment with UACC-62. For the same compound, the GI50 in the experiment on UO-31 was 22 µM (inactive).

`CCCC(=O)NC(C(=O)OCC)(N1CCOCC1)C(F)(F)F` (configuration not stated): the GI50 in the experiment on CAKI-1 was > 100 µM (inactive); in the experiment on CCRF-CEM it was > 100 µM (inactive); in the experiment with COLO 205 it was > 100 µM (inactive); with DU-145, > 100 µM (inactive); with HCT-15, over 100 µM; with HT-29, > 100 µM (inactive). For the same compound, the GI50 in the experiment on K562, with MCF7, in the experiment on MOLT-4, in the experiment on NCI-H226, in the experiment with NCI/ADR-RES and with OVCAR-4 was > 100 µM (inactive) throughout. For the same compound, the GI50 in the experiment on SF-295, in the experiment with SK-MEL-2, in the experiment on SK-MEL-5, with SK-OV-3, in the experiment with SNB-19 and in the experiment on UACC-62 was > 100 µM (inactive) each time. In addition, the GI50 with UO-31 was > 100 µM (inactive).

On to `COc1ccc(-c2cc(-c3ccccc3)n(C3OC(COC(C)=O)C(OC(C)=O)C(OC(C)=O)C3OC(C)=O)c(=S)c2C#N)cc1` (configuration not stated), for which the GI50 was 6.52 µM (inactive) in the experiment on CAKI-1; 11.3 µM (inactive) in the experiment on COLO 205; 11.7 µM (inactive) in the experiment with DU-145; 26.1 µM in the experiment with HCT-15; 6.28 µM (inactive) in the experiment with HT-29; 3.61 µM (inactive) in the experiment on K562. The GI50 with MCF7 was 25.4 µM (inactive); in the experiment with MOLT-4, 17.9 µM (inactive); in the experiment on NCI-H226 it was 5.87 µM (inactive); with NCI/ADR-RES, 11 µM (inactive); with OVCAR-4 it was 2.6 µM (inactive); with SF-295 it was 5.47 µM (inactive). Besides, the GI50 in the experiment on SK-MEL-5 is 6.71 µM (inactive); with SK-OV-3 it was 18.8 µM (inactive); with SNB-19 it was 11.1 µM (inactive); with UACC-62, 4.79 µM (inactive); in the experiment on UO-31 it was 9.08 µM (inactive).

For `O=C1C=CC2(O[C@H](C3CCCCC3)[C@@H](C3CCCCC3)O2)C(SC(=O)c2ccccc2)C1` (some centres not stated), the GI50 is 8.41 µM (inactive) in the experiment on A498; 1.26 µM (inactive) in the experiment on CCRF-CEM; 5.87 µM (inactive) with COLO 205; 2.44 µM (inactive) in the experiment with DU-145; 3.21 µM with HCT-15; 1.36 µM (inactive) in the experiment with HT-29. The GI50 in the experiment on K562 is 1.4 µM (inactive); in the experiment on MCF7 it was 1.48 µM (inactive); in the experiment with MOLT-4, 1.09 µM (active); in the experiment on NCI-H226, 0.82 µM (active); with NCI/ADR-RES, 1.43 µM (inactive); in the experiment with OVCAR-4, 1.25 µM (inactive). The GI50 in the experiment with SF-295 was 7.14 µM (inactive); in the experiment with SK-MEL-2, 4.21 µM (inactive); in the experiment on SK-MEL-5, 1.77 µM (inactive); in the experiment on SK-OV-3, 12.9 µM (inactive); in the experiment on SNB-19, 1.44 µM (inactive); with UACC-62, 2.48 µM (inactive). The GI50 in the experiment on UO-31 is 1.55 µM (inactive).

For `CC/C=C/C(=O)CC(O)(C(F)(F)F)C(F)(F)F`, the GI50 was 22.5 µM (inactive) in the experiment on A498; 73.5 µM (inactive) in the experiment on CCRF-CEM; > 100 µM (inactive) in the experiment on COLO 205; > 100 µM (inactive) in the experiment on DU-145; over 100 µM in the experiment on HCT-15; > 100 µM (inactive) with HT-29. The GI50 with MCF7, in the experiment on MOLT-4, in the experiment with NCI-H226, in the experiment on NCI/ADR-RES, in the experiment with OVCAR-4 and with SF-295 was > 100 µM (inactive) throughout. The GI50 in the experiment on SK-MEL-5 was > 100 µM (inactive); in the experiment on SK-OV-3 it was > 100 µM (inactive); with SNB-19, > 100 µM (inactive); in the experiment on UACC-62 it was > 100 µM (inactive); in the experiment on UO-31, 54 µM (inactive).

On to `OC[C@H]1C[C@@H]2Cc3ccccc3N2N1`, for which the GI50 was > 100 µM (inactive) in the experiment with A498; > 100 µM (inactive) in the experiment with CAKI-1; > 100 µM (inactive) in the experiment with CCRF-CEM; > 100 µM (inactive) in the experiment on COLO 205; > 100 µM (inactive) in the experiment on DU-145; over 100 µM with HCT-15. The GI50 with HT-29, in the experiment with K562, with MOLT-4, in the experiment with NCI-H226, in the experiment with NCI/ADR-RES and with OVCAR-4 was > 100 µM (inactive) throughout. The GI50 in the experiment with SF-295, with SK-MEL-2, in the experiment on SK-MEL-5, in the experiment with SK-OV-3, in the experiment with SNB-19 and in the experiment on UACC-62 was > 100 µM (inactive) each time.

Consider `C[C@@H]1O[C@@H](O[C@H]2CC[C@]3(C=O)[C@H]4CC[C@]5(C)[C@@H](C6=CC(=O)OC6)CC[C@]5(O)[C@@H]4CC[C@]3(O)C2)[C@H](O)[C@H](O)[C@H]1O` [CONVALLATOXIN], for which the GI50 in the experiment with A498 is 5.74e-05 µM (active); with CAKI-1, 1.23e-05 µM (active); in the experiment on CCRF-CEM, < 0.01 µM (active); in the experiment with COLO 205 it was 9.35e-05 µM (active); in the experiment with DU-145, 6.65e-06 µM (active); with HCT-15, 4.69e-05 µM. The GI50 in the experiment on HT-29 is 4.78e-05 µM (active); in the experiment on K562, 4.92e-05 µM (active); with MOLT-4, 6.01e-06 µM (active); in the experiment on NCI-H226, 5.35e-05 µM (active); in the experiment with NCI/ADR-RES, 1.26e-05 µM (active); in the experiment with OVCAR-4 it was 7.28e-06 µM (active). The GI50 in the experiment with SF-295 is 2.73e-05 µM (active); in the experiment with SK-MEL-2, 7.1e-05 µM (active); in the experiment on SK-MEL-5, 2.05e-05 µM (active); with SK-OV-3, 4.37e-05 µM (active); in the experiment with SNB-19, 0.0178 µM (active); in the experiment on UACC-62, 5.85e-05 µM (active). Moreover, the GI50 in the experiment on UO-31 is < 0.01 µM (active).
